# Data: US20250339504A1, “CANCER VACCINE WITH USE OF COMMON CANCER ANTIGEN COCKTAIL, TCR/CAR-T CELL THERAPEUTIC, COMPANION DIAGNOSTIC METHOD, AND METHOD FOR DIAGNOSING RISK OF CANCER ONSET BY DETECTING CIRCULATING TUMOR CELLS” (National Cancer Center, priority 2022, published 2025)
# How the values were obtained:
# [1] = tested on: HLA-A*24:02 transgenic mice; assay: Peptide vaccine CTL induction, IFN-γ ELISpot, HLA-A*24:02 Tgm; type: in vivo; conditions: HLA-A*24:02-restricted short peptide vaccine once per week, three times, splenocytes
# Experimental: (§1) The predicted antigen peptides were evaluated on the capability of inducing CTLs by using transgenic mice with an HLA gene introduced therein. Each peptide was dissolved in dimethyl sulfoxide (DMSO, FUJIFILM Wako Pure Chemical Corporation) at 10 mg/ml, and HLA transgenic mice were immunized with the resultant together with an adjuvant every week, three times in total. One week after that, the spleens were extracted, and the productions of IFN-γ were evaluated through IFN-γ ELISpot assay.
# (§2) In ELISpot assay, CD8-positive T cells were isolated from splenocytes of immunized mice by means of an MACS, and suspended at 1×10^5 cells/well, and the resultant was used as effector cells. Splenocytes of unimmunized mice were subjected to radiation (100 kV, 10 mA, 100 Gy), and suspended at a concentration of 2×10^6 cells/well in Final medium supplemented with any one of the peptides at a concentration of 20 ug/ml, and the resultant was used as target cells.
# (§3) FIG. 14, FIG. 15, and Table 1 show identification of multiple peptides each capable of inducing CD8-positive killer T cells (CTLs) reactive with the peptide in splenocytes of mice systemically expressing human HLA-A*24:02 or HLA-A*02:01 in their cells by screening, wherein a peptide vaccine of peptides predicted to be presented by HLA-A*24:02 or HLA-A*02:01 and synthesized from the amino acid sequences of the ten common cancer antigen full-length proteins was administered once per week, three times in total. The rates of inducing CTLs reactive with those peptides were 30 peptides in the 72 HLA-A*24:02-restricted common cancer antigen short peptides, and 38 peptides in the 73 HLA-A*02:01-restricted common cancer antigen short peptides; 68 peptides in the 145 peptides in total.
# [2] = tested on: HLA-A*24:02 Tgm; assay: Long peptide vaccine, IFN-γ ELISpot, HLA-A*24:02 Tgm; type: in vivo, mice; conditions: long peptide (15 to 21 mer) containing the short peptide, CTLs reactive with the short peptide
# Experimental: as §2
# [3] = tested on: HLA-A*02:01 transgenic mice; assay: Peptide vaccine CTL induction, IFN-γ ELISpot, HLA-A*02:01 Tgm; type: in vivo; conditions: HLA-A*02:01-restricted short peptide vaccine once per week, three times, splenocytes
# Experimental: as §1, §2, §3
# [4] = tested on: HLA-A*02:01 Tgm; assay: Long peptide vaccine, IFN-γ ELISpot, HLA-A*02:01 Tgm; type: in vivo, mice; conditions: long peptide (15 to 21 mer) containing the short peptide, CTLs reactive with the short peptide
# Experimental: as §2
sequence,measurement,setting,value
ADFSGLLEKC [CA24 105],CTL induction,[1],Yes
same,Long peptide reaction,[2],No
AFEFVGEFF [A24-GPC3-17],CTL induction,[1],Yes
same,Long peptide reaction,[2],No
ALFTGWAAA [CLDN1-A02-2],CTL induction,[3],Yes
same,Long peptide reaction,[4],No
AWSYGIVMW [CA24 123],CTL induction,[1],Yes
AYLEVTDVI [CA24 91],CTL induction,[1],Yes
AYMLEVYGSL [LAT1-A24-5],CTL induction,[1],Yes
same,Long peptide reaction,[2],No
AYYPEDLFI [A24-GPC3-11],CTL induction,[1],Yes
same,Long peptide reaction,[2],No
CYAELGTTI [LAT1-A24-2],CTL induction,[1],Yes
same,Long peptide reaction,[2],Yes
DFSGLLEKC [CA02 104],CTL induction,[3],Yes
same,Long peptide reaction,[4],No
DFSGLLEKC [CA24 102],CTL induction,[1],Yes
same,Long peptide reaction,[2],No
DYIGPCKYI [CA24 54],CTL induction,[1],Yes
EFGQALFTGW [CLDN1-A24-5],CTL induction,[1],Yes
same,Long peptide reaction,[2],No
ELFDSLFPV [CA02 12],CTL induction,[3],Yes
FFTDVSLYI [A02-GPC3-18],CTL induction,[3],Yes
FFTDVSLYI [A24-GPC3-10],CTL induction,[1],Yes
FIFHKDLCQ [CA02 103],CTL induction,[3],Yes
same,Long peptide reaction,[4],No
FIFHKDLCQA [CA02 101],CTL induction,[3],Yes
same,Long peptide reaction,[4],No
FLAELAYDL [CA02 11],CTL induction,[3],Yes
same,Long peptide reaction,[4],Yes
FLIIQNAAV [A02-GPC3-12],CTL induction,[3],Yes
same,Long peptide reaction,[4],No
FLLCLAGRAL [CA02 56],CTL induction,[3],Yes
same,Long peptide reaction,[4],No
FLRRGPFEL [CA02 21],CTL induction,[3],Yes
FTYEDPNEAV [CA02 127],CTL induction,[3],Yes
GLDEEQHSV [CA02 121],CTL induction,[3],Yes
same,Long peptide reaction,[4],Yes
GQFTVIQLV [CA02 126],CTL induction,[3],Yes
GWAAASLCL [CLDN1-A24-7],CTL induction,[1],Yes
same,Long peptide reaction,[2],No
HFFATKCTL [CA24 55],CTL induction,[1],Yes
HLIDKVISTI [CA02 82],CTL induction,[3],Yes
HYAKIAADF [CA24 21],CTL induction,[1],Yes
same,Long peptide reaction,[2],No
ILMVFSIWL [CA02 95],CTL induction,[3],Yes
same,Long peptide reaction,[4],Yes
ILPYCRPTF [CA24 98],CTL induction,[1],Yes
same,Long peptide reaction,[2],Yes
ILSMIHPQL [LAT1-A02-4],CTL induction,[3],Yes
same,Long peptide reaction,[4],No
IVMWEVMSF [CA24 127],CTL induction,[1],Yes
IYTWIEDHF [CA24 32],CTL induction,[1],Yes
same,Long peptide reaction,[2],No
"KLCGPYEKF [CA24 23, hHSP105α HLA-A*24:02 short peptide]",CTL induction,[1],peptide-specific IFN-γ production had been found
KLDVGNIVL [LAT1-A02-3],CTL induction,[3],Yes
KMKPLLPRV [CA0233],CTL induction,[3],Yes
KYFTNCKQW [CA24 85],CTL induction,[1],Yes
KYVCVGTNM [CA24 95],CTL induction,[1],Yes
KYWREYILSL [A24-GPC3-06],CTL induction,[1],Yes
same,Long peptide reaction,[2],No
LLQKIEVPL [CA02 24],CTL induction,[3],Yes
LLTPVPSLV [LAT1-A02-2],CTL induction,[3],Yes
LQLLGFILA [CLDN1-A02-6],CTL induction,[3],Yes
MLVAAIQSA [CA02 86],CTL induction,[3],Yes
same,Long peptide reaction,[4],No
MYIFPVHWQF [CA24 51],CTL induction,[1],Yes
same,Long peptide reaction,[2],No
"NYGIYKQDL [CA24 25, hHSP105α HLA-A*24:02 short peptide]",CTL induction,[1],peptide-specific IFN-γ production had been found
"PFSKVLTFL [CA24 22, hHSP105α HLA-A*24:02 short peptide]",CTL induction,[1],peptide-specific IFN-γ production had been found
"PYPEAKIGRF [CA24 24, hHSP105α HLA-A*24:02 short peptide]",CTL induction,[1],peptide-specific IFN-γ production had been found
QLLTPVPSL [LAT1-A02-1],CTL induction,[3],Yes
same,Long peptide reaction,[4],No
RIYDMENVLL [A02-GPC3-10],CTL induction,[3],Yes
RLEAGDHPV [CA02 52],CTL induction,[3],Yes
same,Long peptide reaction,[4],No
RYLTLDQVF [CA24 31],CTL induction,[1],Yes
same,Long peptide reaction,[2],No
SLVSNVNIEL [CA02 83],CTL induction,[3],Yes
same,Long peptide reaction,[4],Yes
STIHDSIQYV [A02-GPC3-14],CTL induction,[3],Yes
same,Long peptide reaction,[4],Yes
SYGIVMWEV [CA24 124],CTL induction,[1],Yes
same,Long peptide reaction,[2],Yes
SYMAMIQFAI [CA24 34],CTL induction,[1],Yes
same,Long peptide reaction,[2],No
TFDSSCHFF [CA24 53],CTL induction,[1],Yes
same,Long peptide reaction,[2],No
TIHDSIQYV [CA02 13],CTL induction,[3],Yes
same,Long peptide reaction,[4],Yes
TMNDSLSKI [CA0235],CTL induction,[3],Yes
same,Long peptide reaction,[4],No
TVDGSTFSV [CA02 92],CTL induction,[3],Yes
VIADRPPPV [CA02 97],CTL induction,[3],Yes
same,Long peptide reaction,[4],Yes
VLDSLVSNV [CA02 81],CTL induction,[3],Yes
VLLGLFSTI [CA02 15],CTL induction,[3],Yes
same,Long peptide reaction,[4],Yes
VMSWIIPVF [LAT1-A24-6],CTL induction,[1],Yes
WYGNRIVQEF [CLDN1-A24-2],CTL induction,[1],Yes
same,Long peptide reaction,[2],No
YGNRIVQEF [CLDN1-A24-4],CTL induction,[1],Yes
same,Long peptide reaction,[2],No
YIFPVHWQF [CA24 52],CTL induction,[1],Yes
same,Long peptide reaction,[2],No
YIIEAFSHA [CA02 91],CTL induction,[3],Yes
YLIGHGTKV [CA02 122],CTL induction,[3],Yes
YMLEVYGSL [LAT1-A02-5],CTL induction,[3],Yes
same,Long peptide reaction,[4],No
YSYAGDNIV [CLDN1-A02-5],CTL induction,[3],Yes
YYICQTLNV [CA24 97],CTL induction,[1],Yes
same,Long peptide reaction,[2],No
